Measured values from patent EP3597653A1, “CYCLIC INHIBITORS OF HEPATITIS B VIRUS” (IRBM S.P.A., priority 2018, dated 2020).
pEC50: −log10 of the molar value.

test system: HBV; test: HBV inhibition assay in HepAD38 cells (extracellular HBV DNA by direct qPCR); assay type: cell-based; details: Hepatitis B virus, 8-point dose-response curve, 96 hours, read-out: HBV inh EC50
From the text: HepAD38 cell line (Ladner et al., Antimicrob Agents Chemother, 1997, 41, 1715-20) was used for HBV inhibition assays. HepAD38 is a subclone, derived from Hepatoblastoma cell line HepG2 (ATCC® Number: HB-8065™), that expresses HBV genome under the control of a tetracycline-responsive promoter in a TET-OFF system: addition of tetracycline suppresses HBV replication, while its removal switches on the process allowing HBV viral particles release in the cell supernatant. HepAD38 cell line is maintained in DMEM/F12, supplemented with 10% of fetal bovine serum, 1% of glutamine, 1% of penicillin/streptomycin, 0.4 mg/ml G418 and 0,3 ug/ml tetracycline. For the HBV inhibition assay, doxycycline-free medium is used in order to allow virion production.
HBV inhibition activity in vitro was performed in 96 multiwell plates. During the initial (primary) screening compounds were first tested in triplicates at concentrations of 0.1µM, 0.5µM amd 1µM. For selected compounds, an 8-point dose-response curve can be obtained using 1:2 serial dilutions (starting from 2.5 µM, 1.25µM or 0.4 µM, depending on the degree of inhibition observed during the primary screening). From the dose-response curves, half maximal effective concentration (EC50) can be calculated (see also below).
In more detail, compounds - typically dissolved in DMSO stock solutions - are diluted to 2x the final desired concentration in 100 µl of the above medium (without doxycycline) and plated in three replicates in the 96-well plates.
Simultaneously, HepAD38 cells - extensively pre-washed in tetracycline-free medium in order to induce HBV production - are suspended at 2*10^4 cells in 100 µl of tetracycline-free medium and added to each well of the plate, to yield a final assay volume of 200 µl DMSO - used for stock solutions and compounds dilutions - which is always present in the assays at a final concentration of 0.5%.
Plates are then incubated 96 hours at 37°C and then subjected to cell viability assay in order to define compounds cytotoxicity and to extracellular HBV quantification in order to evaluate antiviral activity of compounds. Cytotoxicity is assessed by a commercial fluorescence assay that measures the metabolic activity of cells, directly related to cell viability (Cell Titer Blue, Promega). Anti-HBV activity was evaluated by quantification of extracellular HBV DNA with direct qPCR. In particular, supernatant was collected and centrifuged for cell debris clarification, viral DNA was extracted from virions by addition of lysis buffer (1 mM 1,4-dithiothreitol, 0.2% sodium dodecyl sulphate) and incubated at 95°C for 10 min. Samples were then diluted 1:40 and real time PCR amplification was performed with SYBR green assay (Power SYBR™ Green PCR Master Mix-Thermo Fisher Scientific) and specific HBV primer (HBV-DF:5'-[…]-3' (SEQ ID No. 1), HBV-DR:5'-[…]-3' (SEQ ID No. 2)).
All HBV inhibition or antiviral activity data are typically reported in percent (%) relative to a non-treated reference sample. Excel and Graphpad Prism programs are typically used for data elaboration and EC50 calculation.

How did the pEC50 turn out when `Cn1cncc1C1Nc2ccc(C(=O)Nc3cc(F)c(F)c(F)c3)cc2S(=O)(=O)N1` (stereo not shown) [Example E37, 3-(1-methyl-1H-imidazol-5-yl)-N-(3,4,5-trifluorophenyl)-3,4-dihydro-2H-benzo[e][1,2,4]thiadiazine-7-carboxamide 1,1-dioxide] was run?
The pEC50 was > 6.00.

How did the pEC50 turn out when `O=C(Nc1cc(F)c(F)c(F)c1)c1cc(F)c2c(c1)S(=O)(=O)NCN2` [Example E72, 5-fluoro-N-(3,4,5-trifluorophenyl)-3,4-dihydro-2H-benzo[e][1,2,4]thiadiazine-7-carboxamide 1,1-dioxide] was run?
Its pEC50 is < 6.00.

same assay, conditions: Hepatitis B virus, compound at 0.1 µM, 96 hours, relative to non-treated reference, read-out: Anti HBV Activity (conc µM)

With `CN1CC[C@H](N2C(=O)Nc3ccc(C(=O)Nc4cc(F)c(F)c(F)c4)cc3S2(=O)=O)C1` [Example E85, (S)-2-(1-methylpyrrolidin-3-yl)-3-oxo-N-(3,4,5-trifluorophenyl)-3,4-dihydro-2H-benzo[e][1,2,4]thiadiazine-7-carboxamide 1,1-dioxide] as the compound, how does the inhibition at 0.1 µM read?
The inhibition at 0.1 µM was < 50%.

same assay, conditions: Hepatitis B virus, compound at 0.5 µM, 96 hours, relative to non-treated reference, read-out: Anti HBV Activity (conc µM)

Which inhibition at 0.5 µM does the source give for `O=C(Nc1cc(F)c(F)c(F)c1)c1ccc2c(c1)S(=O)(=O)NC(CO)N2` (stereo not shown) [Example E28, 3-(hydroxymethyl)-N-(3,4,5-trifluorophenyl)-3,4-dihydro-2H-benzo[e][1,2,4]thiadiazine-7-carboxamide 1,1-dioxide] here?
The inhibition at 0.5 µM was > 50%.

How did the inhibition at 0.5 µM turn out when `O=C(Nc1cc(F)c(F)c(F)c1)c1ccc2c(c1)S(=O)(=O)N([C@H]1C[C@H](O)C1)C(=O)N2` [Example E125, Trans-2(3-hydroxycyclobutyl)-3-oxo-N-(3,4,5-trifluorophenyl)-3,4-dihydro-2H-benzo[e][1,2,4]thiadiazine-7-carboxamide 1,1-dioxide] was run?
Its inhibition at 0.5 µM is > 50%.

With `Cc1cc(NC(=O)c2ccc3c(c2)S(=O)(=O)N([C@H]2CC[C@H](O)CC2)C(=O)N3)ccc1F` [Example E132, N-(4-fluoro-3-methylphenyl)-2-((1r,4r)-4-hydroxycyclohexyl)-3-oxo-3,4-dihydro-2H-benzo[e][1,2,4]thiadiazine-7-carboxamide 1,1-dioxide] as the compound, how does the inhibition at 0.5 µM read?
Its inhibition at 0.5 µM is > 50%.

Which inhibition at 0.5 µM does the source give for `O=C(Nc1cc(F)c(F)c(F)c1)c1ccc2c(c1)S(=O)(=O)N([C@H]1C[C@@H](O)C1)CN2` [Example E126, Cis-2-(3-hydroxycyclobutyl)-N-(3,4,5-trifluorophenyl)-3,4-dihydro-2H-benzo[e][1,2,4]thiadiazine-7-carboxamide 1,1-dioxide] here?
The inhibition at 0.5 µM was < 50%.

With `O=C(Nc1cc(F)c(F)c(F)c1)c1ccc2c(c1)S(=O)(=O)N([C@H]1C[C@H](O)C1)CN2` [Example E127, Trans-2-(3-hydroxycyclobutyl)-N-(3,4,5-trifluorophenyl)-3,4-dihydro-2H-benzo[e][1,2,4]thiadiazine-7-carboxamide 1,1-dioxide] as the compound, how does the inhibition at 0.5 µM read?
Its inhibition at 0.5 µM is < 50%.

`CC1(C)Nc2ccc(C(=O)Nc3cc(F)c(F)c(F)c3)cc2S(=O)(=O)N1` [Example E27, 3,3-dimethyl-N-(3,4,5-trifluorophenyl)-3,4-dihydro-2H-benzo[e][1,2,4]thiadiazine-7-carboxamide 1,1-dioxide] was tested. Which inhibition at 0.5 µM did it give?
The inhibition at 0.5 µM was > 50%.

With `O=C(Nc1ccc(F)c(C(F)F)c1)c1ccc2c(c1)S(=O)(=O)N([C@H]1CC[C@H](O)CC1)C(=O)N2` [Example E131, N-(3-(difluoromethyl)-4-fluorophenyl)-2-((1r,4r)-4-hydroxycyclohexyl)-3-oxo-3,4-dihydro-2H-benzo[e][1,2,4]thiadiazine-7-carboxamide 1,1-dioxide] as the compound, how does the inhibition at 0.5 µM read?
The inhibition at 0.5 µM was > 50%.

How did the inhibition at 0.5 µM turn out when `C[C@@H](O)C1Nc2ccc(C(=O)Nc3cc(F)c(F)c(F)c3)cc2S(=O)(=O)N1` (stereo partly drawn) [Example E24, 3-((R)-1-hydroxyethyl)-N-(3,4,5-trifluorophenyl)-3,4-dihydro-2H-benzo[e][1,2,4]thiadiazine-7-carboxamide 1,1-dioxide] was run?
The inhibition at 0.5 µM was > 50%.

same assay, conditions: Hepatitis B virus, compound at 1 µM, 96 hours, relative to non-treated reference, read-out: Anti HBV Activity (conc µM)

With `O=C(Nc1cc(F)c(F)c(F)c1)c1cc2c(cc1Cl)NC1(CCC1)NS2(=O)=O` [Example E34, 6-chloro-N-(3,4,5-trifluorophenyl)-2H,4H-spiro[benzo[e] [1,2,4]thiadiazine-3,1'-cyclobutane]-7-carboxamide 1,1-dioxide] as the compound, how does the inhibition at 1 µM read?
The inhibition at 1 µM was < 50%.

For `O=C(Nc1cc(F)c(F)c(F)c1)c1ccc2c(c1)S(=O)(=O)N(C1CC1)C(=O)N2` [Example E79, 2-cyclopropyl-3-oxo-N-(3,4,5-trifluorophenyl)-3,4-dihydro-2H-benzo[e][1,2,4]thiadiazine-7-carboxamide 1,1-dioxide], which inhibition at 1 µM is on record?
The inhibition at 1 µM was < 50%.

How did the inhibition at 1 µM turn out when `O=C(Nc1cc(F)c(F)c(F)c1)c1ccc2c(c1)S(=O)(=O)NC(C(F)(F)F)N2` (stereo not shown) [Example E15, 3-(trifluoromethyl)-N-(3,4,5-trifluorophenyl)-3,4-dihydro-2H-benzo[e][1,2,4]thiadiazine-7-carboxamide1,1-dioxide] was run?
The inhibition at 1 µM was < 50%.

`CC(=O)N1CCN2C(COc3ccc(C(=O)Nc4cc(F)c(F)c(F)c4)cc3S2(=O)=O)C1` (stereo not shown) [Example E116, 2-acetyl-N-(3,4,5-trifluorophenyl)-1,2,3,4,12,12a-hexahydrobenzo[b]pyrazino[1,2-e][1,4,5]oxathiazepine-8-carboxamide 6,6-dioxide] was tested. Which inhibition at 1 µM did it give?
The inhibition at 1 µM was < 50%.

Which inhibition at 1 µM does the source give for `CC(C)(C)OC(=O)N1CCN2C(COc3ccc(C(=O)Nc4cc(F)c(F)c(F)c4)cc3S2(=O)=O)C1` (stereo not shown) [Example E114, tert-butyl 8-((3,4,5-trifluorophenyl)carbamoyl)-3,4,12,12a-tetrahydrobenzo[b]pyrazino[1,2-e][1,4,5]oxathiazepine-2(1H)-carboxylate 6,6-dioxide] here?
The inhibition at 1 µM was < 50%.

Which inhibition at 1 µM does the source give for `O=C(Nc1cc(F)c(F)c(F)c1)c1ccc2c(c1)S(=O)(=O)Nc1ncnn1-2` [Example E138, N-(3,4,5-trifluorophenyl)-4H-benzo[e][1,2,4]triazolo[5,1-c][1,2,4]thiadiazine-7-carboxamide 5,5-dioxide] here?
Its inhibition at 1 µM is < 50%.

With `O=C(Nc1cc(F)c(F)c(F)c1)c1ccc2c(c1)S(=O)(=O)NC(C(F)F)N2` (stereo not shown) [Example E17, 3-(difluoromethyl)-N-(3,4,5-trifluorophenyl)-3,4-dihydro-2H-benzo[e][1,2,4]thiadiazine-7-carboxamide1,1-dioxide] as the compound, how does the inhibition at 1 µM read?
The inhibition at 1 µM was > 50%.

With `O=C(Nc1ccc(F)c(F)c1)c1ccc2c(c1)S(=O)(=O)NC=N2` [Example E66, N-(3,4-difluorophenyl)-2H-benzo[e][1,2,4]thiadiazine-7-carboxamide 1,1-dioxide] as the compound, how does the inhibition at 1 µM read?
Its inhibition at 1 µM is < 50%.

Which inhibition at 1 µM does the source give for `O=C(Nc1ccc(F)c(F)c1)c1ccc2c(c1)S(=O)(=O)NC1(CCC1)N2` [Example E12, N-(3,4-difluorophenyl)-2H,4H-spiro[benzo[e] [1,2,4]thiadiazine-3,1'-cyclobutane]-7-carboxamide 1,1-dioxide] here?
The inhibition at 1 µM was > 50%.

For `O=C(Nc1cc(F)c(F)c(F)c1)c1ccc2c(c1)S(=O)(=O)N[C@@H]1CCC[C@@H]1N2` [Example E136, (3aR,10aS)-N-(3,4,5-trifluorophenyl)-2,3,3a,4,10,10a-hexahydro-1H-benzo[f]cyclopenta[c][1,2,5]thiadiazepine-7-carboxamide 5,5-dioxide], which inhibition at 1 µM is on record?
The inhibition at 1 µM was < 50%.

With `O=C(Nc1ccc(F)c(F)c1)c1ccc2c(c1)S(=O)(=O)N1CCN2CC1` [Example E110, N-(3,4-difluorophenyl)-3,4-dihydro-2,5-ethanobenzo[f][1,2,5]thiadiazepine-8-carboxamide 1,1-dioxide] as the compound, how does the inhibition at 1 µM read?
The inhibition at 1 µM was < 50%.

How did the inhibition at 1 µM turn out when `O=C(Nc1cc(F)c(F)c(F)c1)c1ccc2c(c1)S(=O)(=O)N1CCCC[C@H]1CO2` [Example E113, (S)-N-(3,4,5-trifluorophenyl)-1,2,3,4,12,12a-hexahydrobenzo[b]pyrido[1,2-e][1,4,5]oxathiazepine-8-carboxamide 6,6-dioxide] was run?
Its inhibition at 1 µM is < 50%.

How did the inhibition at 1 µM turn out when `O=C(Nc1cc(F)c(F)c(F)c1)c1ccc2c(c1)S(=O)(=O)N1CCNCC1CO2` (stereo not shown) [Example E115, N-(3,4,5-trifluorophenyl)-1,2,3,4,12,12a-hexahydrobenzo[b]pyrazino[1,2-e][1,4,5]oxathiazepine-8-carboxamide 6,6-dioxide] was run?
The inhibition at 1 µM was < 50%.

`Cc1cc(C(=O)Nc2cc(F)c(F)c(F)c2)cc2c1NC(c1nccs1)NS2(=O)=O` (stereo not shown) [Example E89, 5-methyl-3-(thiazol-2-yl)-N-(3,4,5-trifluorophenyl)-3,4-dihydro-2H-benzo[e][1,2,4]thiadiazine-7-carboxamide 1,1-dioxide] was tested. Which inhibition at 1 µM did it give?
Its inhibition at 1 µM is > 50%.
